Among the data in ChEMBL document CHEMBL5321210, “N-adamantyl-anthranil amide derivatives: New selective ligands for the cannabinoid receptor subtype 2 (CB2R)” (Eur J Med Chem, 2023) are Activity values, retold here.

In test [1] the test system is THP-1. In words: Antiinflammatory against LPS-activated human THP-1 monocytes assessed as decrease in IL-6 production at 10 uM incubated for 24 hrs in the presence of JTE907 by ELISA coupled qRT-PCR analysis. It is filed as functional, cell-based. Background: An ELISA detects its analyte on a solid surface through an enzyme-linked reagent.
Test [2] has as its system THP-1. As to the kind of experiment: Antiinflammatory activity in PMA-differentiated human THP-1 macrophages assessed as reduction in IL-1beta production at 10 uM incubated for 24 hrs by ELISA coupled qRT-PCR analysis relative to control. It is filed as functional. Also noted: scale not given: the % may be the effect or the level left.
For test [3], the system named is THP-1. In words: Antiinflammatory against LPS-activated human THP-1 monocytes assessed as increase in IL-4 production at 10 uM incubated for 24 hrs in the presence of JTE907 by ELISA coupled qRT-PCR analysis. In kind it is functional, cell-based.
Test [4] has as its system THP-1. In words: Antiinflammatory activity in human THP-1 monocytes assessed as increase in IL-10 production at 10 uM incubated for 24 hrs in the presence of JTE907 by ELISA coupled qRT-PCR analysis. In kind it is functional, cell-based.
For test [5], the system named is THP-1. In words: Antiinflammatory activity in human THP-1 monocytes assessed as increase in IL-4 production at 10 uM incubated for 24 hrs in the presence of JTE907 by ELISA coupled qRT-PCR analysis. In kind it is functional, cell-based.
For test [6], the system named is THP-1. In words: Antiinflammatory activity against LPS-activated human THP-1 monocytes assessed as increase in IL-10 production at 10 uM incubated for 24 hrs in the presence of N-(adamantan-1-yl)-4-(pentylamino)-[1,1'-biphenyl]-3-carboxamide by ELISA coupled qRT-PCR analysis. In kind it is functional, cell-based.
For test [7], the system named is THP-1. As to the kind of experiment: Antiinflammatory activity against LPS-activated human THP-1 monocytes assessed as decrease in IL-6 production at 10 uM incubated for 24 hrs in the presence of N-(adamantan-1-yl)-4-(pentylamino)-[1,1'-biphenyl]-3-carboxamide by ELISA coupled qRT-PCR analysis. In kind it is functional, cell-based.
Test [8] concerns THP-1. As to the kind of experiment: Antiinflammatory activity against LPS-activated PMA-differentiated human THP-1 monocytes assessed as decrease in IFN-gamma production at 10 uM incubated for 24 hrs in the presence of N-(adamantan-1-yl)-4-(pentylamino)-[1,1'-biphenyl]-3-carboxamide by ELISA coupled qRT-PCR analysis. In kind it is functional, cell-based.
Test [9] relates to THP-1. As to the kind of experiment: Antiinflammatory activity against LPS-activated PMA-differentiated human THP-1 macrophages assessed as increase in IL-10 production at 10 uM incubated for 24 hrs by ELISA coupled qRT-PCR analysis. It is filed as functional, cell-based.
In test [10] the test system is THP-1. In words: Antiinflammatory activity in PMA-differentiated human THP-1 macrophages assessed as reduction in IL-6 production at 10 uM incubated for 24 hrs by ELISA coupled qRT-PCR analysis relative to control. In kind it is functional. Further details: scale not given: the % may be the effect or the level left.
Test [11] has as its system THP-1. As to the kind of experiment: Antiinflammatory activity in human THP-1 monocytes assessed as increase in IL-10 production at 10 uM incubated for 24 hrs in the presence of N-(adamantan-1-yl)-4-(pentylamino)-[1,1'-biphenyl]-3-carboxamide by ELISA coupled qRT-PCR analysis. In kind it is functional, cell-based.
The subject of test [12] is THP-1. As to the kind of experiment: Antiinflammatory activity in PMA-differentiated human THP-1 macrophages assessed as decrease in IL-6 production at 10 uM incubated for 24 hrs in the presence of JTE907 by ELISA coupled qRT-PCR analysis. It is filed as functional, cell-based.
Test [13] concerns THP-1. In words: Antiinflammatory activity against LPS-activated PMA-differentiated human THP-1 monocytes assessed as decrease in IL-6 production at 10 uM incubated for 24 hrs in the presence of N-(adamantan-1-yl)-4-(pentylamino)-[1,1'-biphenyl]-3-carboxamide by ELISA coupled qRT-PCR analysis. It is filed as functional, cell-based.
The test system of test [14] is THP-1. In words: Antiinflammatory activity against LPS-activated PMA-differentiated human THP-1 monocytes assessed as increase in IL-10 production at 10 uM incubated for 24 hrs in the presence of N-(adamantan-1-yl)-4-(pentylamino)-[1,1'-biphenyl]-3-carboxamide by ELISA coupled qRT-PCR analysis. It is filed as functional, cell-based.
In test [15] the test system is THP-1. In words: Antiinflammatory activity against LPS-activated PMA-differentiated human THP-1 macrophages assessed as increase in IL-4 production at 10 uM incubated for 24 hrs by ELISA coupled qRT-PCR analysis. It is filed as functional, cell-based.
In test [16] the test system is THP-1. As to the kind of experiment: Antiinflammatory activity against LPS-activated PMA-differentiated human THP-1 monocytes assessed as increase in IL-4 production at 10 uM incubated for 24 hrs in the presence of N-(adamantan-1-yl)-4-(pentylamino)-[1,1'-biphenyl]-3-carboxamide by ELISA coupled qRT-PCR analysis. It is filed as functional, cell-based.
The test system of test [17] is THP-1. As to the kind of experiment: Antiinflammatory activity in PMA-differentiated human THP-1 monocytes assessed as increase in IL-4 production at 10 uM incubated for 24 hrs in the presence of N-(adamantan-1-yl)-4-(pentylamino)-[1,1'-biphenyl]-3-carboxamide by ELISA coupled qRT-PCR analysis. It is filed as functional, cell-based.
Test [18] deals with THP-1. As to the kind of experiment: Antiinflammatory activity in PMA-differentiated human THP-1 macrophages assessed as increase in IL-4 production at 10 uM incubated for 24 hrs in the presence of JTE907 by ELISA coupled qRT-PCR analysis. It is filed as functional, cell-based.
The test system of test [19] is THP-1. As to the kind of experiment: Antiinflammatory activity in human THP-1 monocytes assessed as increase in IL-4 production at 10 uM incubated for 24 hrs in the presence of N-(adamantan-1-yl)-4-(pentylamino)-[1,1'-biphenyl]-3-carboxamide by ELISA coupled qRT-PCR analysis. It is filed as functional, cell-based.
For test [20], the system named is THP-1. In words: Antiinflammatory activity in human THP-1 monocytes assessed as decrease in IL-6 production at 10 uM incubated for 24 hrs in the presence of JTE907 by ELISA coupled qRT-PCR analysis. In kind it is functional, cell-based.
For test [21], the system named is THP-1. As to the kind of experiment: Antiinflammatory against LPS-activated human THP-1 monocytes assessed as increase in IL-4 production at 1 to 10 uM incubated for 24 hrs in the presence of JTE907 by ELISA coupled qRT-PCR analysis. In kind it is functional, cell-based. To be noted: dose 1-10 µM.
The subject of test [22] is THP-1. In words: Antiinflammatory activity in LPS-activated PMA-differentiated human THP-1 macrophages assessed as decrease in IL-6 production at 1 to 10 uM incubated for 24 hrs in the presence of JTE907 by ELISA coupled qRT-PCR analysis. The conditions noted are these: dose 1-10 µM. It is filed as functional, cell-based.
Test [23] concerns THP-1. As to the kind of experiment: Antiinflammatory activity in human THP-1 monocytes assessed as decrease in IFN-gamma production at 1 to 10 uM incubated for 24 hrs in the presence of JTE907 by ELISA coupled qRT-PCR analysis. It is filed as functional, cell-based. The conditions noted are these: dose 1-10 µM.
Test [24] concerns THP-1. In words: Antiinflammatory activity in human THP-1 monocytes assessed as increase in IL-4 production at 1 to 10 uM incubated for 24 hrs in the presence of JTE907 by ELISA coupled qRT-PCR analysis. In kind it is functional, cell-based. To be noted: dose 1-10 µM.
In test [25] the test system is THP-1. As to the kind of experiment: Antiinflammatory activity in PMA-differentiated human THP-1 macrophages assessed as reduction in TNF-alpha production at 1 to 10 uM incubated for 24 hrs by ELISA coupled qRT-PCR analysis relative to control. It is filed as functional. Also noted: scale not given: the % may be the effect or the level left. The conditions noted are these: dose 1-10 µM.

The test system of test [26] is THP-1. In words: Antiinflammatory activity in human THP-1 monocytes assessed as decrease in TNF-alpha production incubated for 24 hrs by ELISA coupled qRT-PCR analysis. It is filed as functional, cell-based. To be noted: dose 1-10 µM.
Test [27] concerns THP-1. As to the kind of experiment: Antiinflammatory activity in human THP-1 monocytes assessed as increase in IL-4 production incubated for 24 hrs by ELISA coupled qRT-PCR analysis. It is filed as functional, cell-based. To be noted: dose 1-10 µM.

Calls of active or inactive are those of the source. No cut-off for these calls is given here.

On to `O=C(NC1CCCCC1)c1cn(CCN2CCOCC2)c2cc(Cl)ccc2c1=O`, for which the outcome in the test on THP-1 [1], in the test with THP-1 [3], in the test with THP-1 [4], with THP-1 [5], with THP-1 [6] and in the test on THP-1 [7] was inactive. Also, the outcome with THP-1 [8], with THP-1 [11], in the test on THP-1 [12], with THP-1 [13], in the test on THP-1 [14] and in the test with THP-1 [16] was inactive. For the same compound, the result with THP-1 [17], in the test with THP-1 [18], in the test on THP-1 [19] and with THP-1 [20] was inactive. Besides, the Activity in the test with THP-1 [2] and with THP-1 [10] was 50% each time. For the same compound, the outcome in the test on THP-1 [9] and with THP-1 [15] was Active.
Regarding `CCCCCNc1ccccc1C(=O)NC12CC3CC(CC(C3)C1)C2`, the result in the test with THP-1 [21], in the test with THP-1 [22], in the test on THP-1 [23] and in the test with THP-1 [24] was inactive. Besides, the Activity in the test on THP-1 [25] was 50%; with THP-1 [26], “Dose-Dependent Effect”; in the test with THP-1 [27], “Dose-Dependent Effect”.
